Assay results: patent US5393667A, “Eucaryotic NAD cyclases” (priority 1993, dated 1995)

Columns and labels:
[1] = target: T1, Aplysia californica NAD cyclase (ovotestis NADase), purified, wild type (Aplysia californica, UniProt P29241); test: NAD cyclase velocity vs. NAD concentration ([14C]-nicotinamide release); assay type: biochemical
T1 construct: from tissue; host or cells: ovotestis (Aplysia)
T1 sequence (P29241 25-282): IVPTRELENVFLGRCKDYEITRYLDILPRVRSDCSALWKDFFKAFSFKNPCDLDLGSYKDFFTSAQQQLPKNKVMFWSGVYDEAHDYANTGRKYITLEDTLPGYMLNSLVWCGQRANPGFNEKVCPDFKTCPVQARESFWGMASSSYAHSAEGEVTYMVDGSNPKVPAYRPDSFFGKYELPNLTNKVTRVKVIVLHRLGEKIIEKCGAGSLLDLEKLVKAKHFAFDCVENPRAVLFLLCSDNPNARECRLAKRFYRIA
Method: (§1) Referring to FIG. 4, various concentrations (0.05 to 5.0 mM) of [carbonyl-^14 C]NAD (specific activity=1.6 nCi/nmol) and 5×10^-9 M ovotestis NADase were incubated in 300 mM potassium phosphate buffer (pH 7.0) at 30° C. The amount of NAD cleaved during the incubation period was determined by measuring the amount of [^14 C]-nicotinamide produced. The data was fitted to the equation f=a+b*exp(-c*x) using a nonlinear curve fitting program (SigmaPlot, version 4.0). The estimated Km of the NAD Cyclase is 0.7 mM and the Vmax is approximately 32 nmoles/minute/35 ng enzyme. This corresponds to a turnover rate of about 27,000 moles NAD/minute/mole of NAD Cyclase at 30° C.

[2] = tested on: rat liver NAD glycohydrolase; conditions: Moss et al., J. Biol. Chem. 257:5755-5759, 1982; cited from earlier work
[3] = target: T2, eucaryotic NAD cyclases of this invention (example: Aplysia californica NAD cyclase) (Aplysia californica, UniProt P29241); test: Resistance of NAD cyclase to inhibitors of eucaryotic NADases; assay type: biochemical; conditions: for inhibition of NAD cyclase by inhibitor: concentration not given
T2 sequence (P29241 25-282): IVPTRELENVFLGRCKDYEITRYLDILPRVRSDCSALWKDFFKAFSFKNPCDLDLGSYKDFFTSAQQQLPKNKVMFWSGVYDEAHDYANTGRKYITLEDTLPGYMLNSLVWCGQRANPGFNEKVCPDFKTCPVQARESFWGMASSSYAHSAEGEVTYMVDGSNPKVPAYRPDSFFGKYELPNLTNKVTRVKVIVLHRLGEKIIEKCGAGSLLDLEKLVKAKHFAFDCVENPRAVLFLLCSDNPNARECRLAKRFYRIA

[4] = substrate: NC(=O)c1ccc[n+]([C@@H]2O[C@H](COP(=O)([O-])OP(=O)(O)OC[C@H]3O[C@@H](n4cnc5c(N)ncnc54)[C@H](O)[C@@H]3O)[C@@H](O)[C@H]2O)c1; test: NAD cyclase velocity vs. NAD concentration ([14C]-nicotinamide release); assay type: biochemical, Aplysia californica; conditions: other: 0.05 to 5.0 mM [carbonyl-14C]NAD, 5x10^-9 M enzyme, 300 mM potassium phosphate pH 7.0, 30° C., estimated by nonlinear curve fit
Method: as §1

Molecule: NC(=O)c1ccc[n+]([C@@H]2O[C@H](COP(=O)([O-])OP(=O)(O)OC[C@H]3O[C@@H](n4cnc5c(N)ncnc54)[C@H](O)[C@@H]3O)[C@@H](O)[C@H]2O)c1 [NAD, nicotinamide adenine dinucleotide]
- Vmax ([1]; 300 mM potassium phosphate pH 7.0, 30° C.): approximately 32 nmoles/minute/35 ng enzyme
- turnover rate ([1]; at 30° C., corresponds to Vmax): about 27,000 moles NAD/minute/mole of NAD Cyclase
- Km [2]: ~18 µM

Molecule: NNC(=O)c1ccncc1 [isonicotinic acid hydrazide]
- inhibition of NAD cyclase by inhibitor [3]: resistant

Molecule: O[C@H](CS)[C@H](O)CS (racemic) [DTT, dithiothreitol]
- inhibition of NAD cyclase by DTT ([3]; 1 mM DTT): resistant

Molecule: CC(=O)c1ccc[n+]([C@@H]2O[C@H](COP(=O)([O-])OP(=O)(O)OC[C@H]3O[C@@H](n4cnc5c(N)ncnc54)[C@H](O)[C@@H]3O)[C@@H](O)[C@H]2O)c1 [3-acetylpyridine adenine dinucleotide]
- inhibition of NAD cyclase by inhibitor [3]: resistant

B1: Aplysia californica NAD cyclase (ovotestis NADase), purified, wild type (Aplysia californica) (protein)
chain: IVPTRELENVFLGRCKDYEITRYLDILPRVRSDCSALWKDFFKAFSFKNPCDLDLGSYKDFFTSAQQQLPKNKVMFWSGVYDEAHDYANTGRKYITLEDTLPGYMLNSLVWCGQRANPGFNEKVCPDFKTCPVQARESFWGMASSSYAHSAEGEVTYMVDGSNPKVPAYRPDSFFGKYELPNLTNKVTRVKVIVLHRLGEKIIEKCGAGSLLDLEKLVKAKHFAFDCVENPRAVLFLLCSDNPNARECRLAKRFYRIA
notes: 5×10^-9 M ovotestis NADase were incubated in 300 mM potassium phosphate buffer; from tissue; host or cells: ovotestis (Aplysia)
- Km [4]: 700 µM
